# US20170292961A1, “SYSTEMS AND METHODS FOR ASSESSING INTER-CELL COMMUNICATION” (Q-STATE BIOSCIENCES, INC., priority 2014, published 2017)
# “And” between values parts separate entries of the source, which are not always exact repeats. Identical values can stand only once. Like-named read-outs stand apart in the source and are kept apart here.
# B1: Arch 3 WT: wild type Archaerhodopsin 3, light-driven proton pump from Halorubrum sodomense used as fluorescent voltage indicator (protein, UniProt P96787 7-258, looked up)
# Archaerhodopsin-3: QAGYDLLGDGRPETLWLGIGTLLMLIGTFYFLVRGWGVTDKDAREYYAVTILVPGIASAAYLSMFFGIGLTEVTVGGEMLDIYYARYADWLFTTPLLLLDLALLAKVDRVTIGTLVGVDALMIVTGLIGALSHTAIARYSWWLFSTICMIVVLYFLATSLRSAAKERGPEVASTFNTLTALVLVLWTAYPILWIIGTEGAGVVGLGIETLLFMVLDVTAKVGFGFILLRSRAILGDTEAPEPSAGADVSAAD
# B2: Arch D95N: Archaerhodopsin 3 with D95N mutation, voltage indicator (protein, UniProt P96787 7-258, looked up, variant D95N)
# Archaerhodopsin-3: QAGYDLLGDGRPETLWLGIGTLLMLIGTFYFLVRGWGVTDKDAREYYAVTILVPGIASAAYLSMFFGIGLTEVTVGGEMLDIYYARYANWLFTTPLLLLDLALLAKVDRVTIGTLVGVDALMIVTGLIGALSHTAIARYSWWLFSTICMIVVLYFLATSLRSAAKERGPEVASTFNTLTALVLVLWTAYPILWIIGTEGAGVVGLGIETLLFMVLDVTAKVGFGFILLRSRAILGDTEAPEPSAGADVSAAD
# Legend:
# [1] = system: cardiomyocytes
# Excerpt: In some embodiments, the reporter cells also include an optical ion sensor that indicates an intracellular concentration of an ion, for example, a calcium reporter. In a preferred embodiment, the optical voltage reporter and the calcium reporter are provided together within a fusion protein. For example, the fusion protein may be CaViar which includes a calcium reporter and a voltage indicator. Using such a fusion protein, detecting the optical signal may include detecting an action potential and calcium transients.
# The columns show results from increasing concentrations and each panel is fluorescence over time.
# [2] = system: neurons
# Excerpt: Methods of the invention may be used to evaluate the effects of compounds on neurons. In some embodiments, the cells that include the optical voltage reporter are neurons and those neurons are exposed to a voltage-gated potassium channel blocker such as tetraethylammonium.
# [3] = system: membrane voltage; details: literature indicators; cited from earlier work
# [4] = system: patient-derived neurons; assay: Spike frequency of patient-derived neurons exposed to an anticonvulsant; format: cell-based; details: for spike frequency: in DMSO versus DMSO alone
# Excerpt: FIG. 52 illustrates the results of exposing patient-derived neurons to acute doses of an anticonvulsant. A frequency of spiking is plotted over unitless scaled stimulus strength. Angled vertical lines are drawn onto the graph to aid in showing which data points correspond to one another. Asterisks are used to indicate a significance of a difference. […] FIG. 53 illustrates the results of exposing patient-derived neurons to chronic doses of an anticonvulsant. A frequency of spiking is plotted over unitless scaled stimulus strength. After exposure to STR in DMSO (versus exposure to the DMSO alone), spike frequency is decreased. […] Thus it can be seen that methods and compositions of the invention may be used to evaluate signal propagation between cells such as cardiomyocytes or neurons.
# [5] = system: estrogen sulfotransferase; details: pathway of metabolism of birth control pill ingredients; cited from earlier work
# [6] = system: membrane voltage; assay: Speed and sensitivity of fluorescent voltage indicators
# Excerpt: Membrane voltage can be measured with a precision of <1 mV in a 1 s interval. […] Arch 3 WT retains the photo-induced proton-pumping, so illumination slightly hyperpolarizes the cell. […] The voltage-indicating protein reporters, sometimes referred to as genetically encoded voltage indicators (GEVIs), may be excited with a laser at wavelengths between 590-640 nm, and the emission is in the near infrared, peaked at 710 nm.
# [7] = system: HEK 293T cells; assay: Arch fluorescence versus membrane potential in HEK cells under whole-cell voltage clamp; format: cell-based, human
# Excerpt: An optical reporter such as Arch 3 may be expressed in human embryonic kidney 293 (HEK293T) cells. Fluorescence of Arch 3 in HEK 293T cells was readily imaged in an inverted fluorescence microscope with red illumination (=640 nm, I=540 W/cm2), a high numerical aperture objective, a Cy5 filter set, and an EMCCD camera.
# Fluorescence of Arch 3 in HEK 293 cells was readily imaged in an inverted fluorescence microscope with red illumination (lambda=640 nm, I=540 W/cm̂2), a high numerical aperture objective, a Cy5 filter set, and an EMCCD camera. […] Cells not expressing Arch were not fluorescent.
# The fluorescence of HEK cells expressing Arch was highly sensitive to membrane potential, as determined via whole-cell voltage clamp. We developed an algorithm to combine pixel intensities in a weighted sum such that the output, was a nearly optimal estimate of membrane potential V determined by conventional electrophysiology.
# The fluorescence was divided by its value at −150 mV. The fluorescence increased by a factor of 2 between −150 mV and +150 mV, with a nearly linear response throughout this range (FIG. 35). The response of fluorescence to a step in membrane potential occurred within the 500 micro s time resolution of our imaging system on both the rising and falling edge.
# The overshoots on the rising and falling edges were an artifact of electronic compensation circuitry. Data were an average of 20 cycles. […] Cells not expressing Arch 3 were not fluorescent. […] Application of a sinusoidally varying membrane potential led to sinusoidally varying fluorescence; at f=1 kHz, the fluorescence oscillations retained 55% of their low-frequency amplitude (FIG. 37). Arch reported voltage steps as small as 10 mV, with an accuracy of 625 micro V/(Hz)̂(1/2) over timescales<12 s (FIG. 38). Over longer timescales laser power fluctuations and cell motion degraded the accuracy.
molecule,measurement,setting,value
COc1c(N2C[C@@H]3CCCN[C@@H]3C2)c(F)cc2c(=O)c(C(=O)O)cn(C3CC3)c12 [moxifloxacin],AP30,[1],decrease
same,AP60,[1],decrease
same,AP90,[1],decrease
same,Ca amplitude,[1],decrease
same,average action potential waveform,[1],AP prolongation
same,calcium trace (fluorescence over time),[1],severely diminished
same,rise time,[1],increase
same,voltage trace (fluorescence over time),[1],less pronounced effect
CC[N+](CC)(CC)CC [tetraethylammonium],instantaneous firing rate,"[2]; after a few seconds of increasing stimulus intensity, before vs after exposure",unexposed cells (“before”) consistently fire at a higher rate
same,Ahp,[2]; after exposure,change in Ahp
same,number of spiking cells,[2]; after exposure,reduction in the number of spiking cells
same,return of fluorescence to baseline (average waveform),[2]; after exposure,does not return to baseline to the degree it did before exposure
same,spike height,[2]; after exposure,lower
same,instantaneous firing rate,"[2]; lower stimulus intensities (time=0 to about 2 s), exposed cells",a few very high spikes in firing rate
Flash,f (delta F/F per 100 mV),[3],5.1%
same,response time,[3],2.8 to 85 ms
CC(C)(C)C(O)/C=C/c1ccc2c(c1)OCO2 (stereo not drawn) [stiripentol],spike frequency,[4]; acute doses,significantly decreased
same,spike frequency,[4]; chronic doses,decreased
same,"impact on spike frequency, acute versus chronic exposure",[4]; visual comparison of FIG. 52 to FIG. 53,acute STR has a more severe impact on spike frequency than chronic exposure
O=C(NCC1CCCCN1)c1cc(OCC(F)(F)F)ccc1OCC(F)(F)F (stereo not drawn) [flecainide],AP30,[1],decrease
same,AP60,[1],decrease
same,AP90,[1],decrease
same,Ca amplitude,[1],decrease
same,average action potential waveform,[1],diverge dramatically
same,calcium trace (fluorescence over time),[1],dramatically diminished
same,rise time,[1],increase
same,"rise time (average, FIG. 46)",[1],interferes with rise time
same,voltage trace (fluorescence over time),[1],dramatically diminished
CO[C@H]1/C=C/O[C@@]2(C)Oc3c(C)c(O)c4c(O)c(c(/C=N/N5CCN(C)CC5)c(O)c4c3C2=O)NC(=O)/C(C)=C\C=C\[C@H](C)[C@H](O)[C@@H](C)[C@@H](O)[C@@H](C)[C@H](OC(C)=O)[C@@H]1C [Rifampin],induction of estrogen sulfotransferase,[5],induce
B1,time to 90% of step response,[6],0.6 ms
same,response time,[6]; Arch indicators,< 0.5 ms and 0.6 ms
same,smallest voltage steps reported,[7],10 mV
same,fluorescence increase (factor),[7]; between −150 mV and +150 mV,2
same,response of fluorescence to a step in membrane potential,"[7]; rising and falling edge, time resolution of imaging system",≤ 500 micro s
same,fluorescence oscillation amplitude retained relative to low-frequency amplitude,"[7]; sinusoidally varying membrane potential, f=1 kHz",55%
same,step response time,"[7]; steps between −70 mV and +30 mV, resolution of imaging system",< 0.5 ms
same,accuracy of reported voltage,[7]; timescales<12 s,625 micro V/(Hz)̂(1/2)
B2,f (delta F/F per 100 mV),[6]; Arch indicators,100%
same,response time,[6]; Arch indicators,41 ms
